Laboratory results: patent publication US20020086860A1, “[1,4]Diazepino [6,7,1-jk] carbazoles and derivatives” (American Home Products Corporation, priority 2000, published 2002)
Structures can show the parent of a compound that is named as a salt. Where two headings read alike, the source gives them in different places.

What was measured:
human 5-HT2C receptor = target: T1, human 5-HT2C receptor (Homo sapiens, UniProt P28335); test: Stimulation of [3H] Inositol Monophosphate production by 5HT2C agonists in transfected CHO cells; details: for Emax: CHO, read-out: 5HT2C % Emax (5HT, 100%)
T1 sequence (P28335 33-458): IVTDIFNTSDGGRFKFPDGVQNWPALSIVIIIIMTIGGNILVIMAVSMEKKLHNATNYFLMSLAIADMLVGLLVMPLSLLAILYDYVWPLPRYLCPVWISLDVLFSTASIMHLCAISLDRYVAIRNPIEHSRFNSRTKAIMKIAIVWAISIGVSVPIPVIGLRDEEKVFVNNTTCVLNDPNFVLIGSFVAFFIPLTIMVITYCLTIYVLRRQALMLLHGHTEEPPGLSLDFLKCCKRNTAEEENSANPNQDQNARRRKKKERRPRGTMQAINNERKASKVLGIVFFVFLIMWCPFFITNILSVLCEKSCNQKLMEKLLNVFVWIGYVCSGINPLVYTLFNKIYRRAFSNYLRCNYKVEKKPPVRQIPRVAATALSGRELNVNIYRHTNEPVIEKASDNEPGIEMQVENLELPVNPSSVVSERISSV
Description: One (1) ml of maintenance medium containing 1 μCi/ml myo-[^3H] inositol was added to each well. After 48 hours labeling, the cells were washed once with 0.5 ml DMEM containing 25 mM HEPES and 10 mM LiCl, then preincubated with the medium for 30 min (antagonists were included in this period if tested). At the end of the preincubation, the medium was removed, the cells were then incubated with test compounds (in presence of antagonists if needed) for 30 min. The reaction was terminated by removal of the incubation solution and addition of 0.5 ml ice-cold 5% PCA, followed by 15 to 30 min incubation on ice. 200 μl of 0.5 M Tes/1.5 M K2CO3 was added to each well to neutralize to pH 7, and plates were left on ice for another 15 to 30 min to precipitate all salts. The liquid and solid phases were separated by centrifugation.
A portion (350 μl) of the upper aqueous phase was applied to Dowex AG-1×8 (formate form, 100-200 mesh) columns. The columns were then washed stepwise with 10 ml of water and 10 ml of 25 mM ammonium formate to remove free myo-[^3H]inositol and deacylated phosphoinositol, respectively. Finally 10 ml of 0.2 M ammonium formate solution was applied to the columns to elute [^3H] inositol monophosphate ([^3H] IP1) directly into scintillation vials. Of this eluate, 1 ml was used to determine radioactivity by scintillation counting.
A 3-parameter logistic function is used to generate estimate of EC50/IC50.

male Sprague-Dawley rats = test: Effects of Compounds on Feeding Behavior in Rats (food intake, 24 hr fast); assay type: in vivo; details: Rattus norvegicus, ip, dose giving 50% reduction in food intake, read-out: ED50 (mg/kg), 5HT2C Food Intake in Rats
Description: Effects of Compounds on Feeding Behavior in Rats
Eight (8) male Sprague-Dawley rats weighing 150-180 g were separated into individual cages and acclimated to a powdered diet for 2 weeks. During this period and throughout the test procedure, the food cup and the animals were weighed daily. Following the acclimation period, animals were fasted for 24 hours and then injected with either vehicle or one of 4 doses of the test compound. Food intake was assessed at 2 and 24 hours following compound administration. Compounds to be evaluated were injected 1-2× per week until all animals had received all doses of the test compound. The order of doses were chosen using to a modified Latin Square design. Additional studies may be conducted in satieted rats at the start of the dark cycle. Compounds were injected i.p, s.c. or p.o. At the end of the study effects of the test compound on food intake was evaluated using a repeated measures ANOVA. Data were collected were 2 hour food intake (g). Data were subjected to one-way ANOVA with posthoc t-tests to assess group differences. Where appropriate, ED50 values were calculated.

[1] = target: T2, human 5-hydroxytryptamine2C (h5HT2C) receptor (Homo sapiens, UniProt P28335); test: 5HT2C Receptor Binding Test Procedure ([125I]DOI displacement, CHO cell membranes)
T2 construct: expressed in transfected cells; host or cells: CHO (Chinese Hamster Ovary) cells; membrane preparation
T2 sequence (P28335 33-458): T1 sequence (P28335 33-458)

[2] = tested on: several animal species and humans; details: Cowen et al. 1995; cited from earlier work
[3] = read-out: Ki value and 95% confidence interval (reference compounds)

## c1cc2c3c(c1)C1CCCCC1N3CCNC2 (centres unmarked) (as salt: hydrochloride) [Example 2, 1,2,3,4,7b,8,9,10,11,11a-Decahydro-[1,4]diazepino[6,7,1-jk]carbazole]
other
  melting point: 265 to 269 °C

## c1cc2c3c(c1)c1c(n3CCNC2)CCCC1 [Example 1, 1,2,3,4,8,9,10,11-Octahydro-[1,4]diazepino[6,5,4-jk]carbazole]
Human 5-HT2C receptor
  EC50: 0.426 µM
  Emax: 90%
Male Sprague-Dawley rats
  ED50: 20.9 mg/kg

## c1cc2c3c(c1)C1CCCCC1N3CCNC2 (centres unmarked) [Example 2, 1,2,3,4,7b,8,9,10,11,11a-Decahydro-[1,4]diazepino[6,7,1-jk]carbazole]
[1]
  Ki: 0.092 µM
Human 5-HT2C receptor
  EC50: 0.207 µM
  Emax: 70%

## CC1(C)Cc2c(c3cccc4c3n2CCNC4)C(C)(C)C1 [Example 3, 8,8,10,10-Tetramethyl-1,2,3,4,8,9,10,11-octahydro[1,4]diazepino[6,7,1-jk]carbazole]
[1]
  Ki: 0.073 µM

## CC1(C)CCc2c(c3cccc4c3n2CCNC4)C1 [Example 4, 9,9,Dimethyl-1,2,3,4,8,9,10,11-octahydro[1,4]diazepino[6,7,1-jk]carbazole]
[1]
  Ki: 0.243 µM

## Clc1cc2c3c(c1)c1c(n3CCNC2)CCCC1 [Example 5, 6-Chloro-1,2,3,4,8,9,10,11-octahydro[1,4]diazepino[6,7,1-jk]cabazole]
[1]
  Ki: 0.358 µM

## CCN1CCn2c3c(c4cc(Cl)cc(c42)C1)CCCC3 [Example 9, 6-Chloro-3-ethyl-1,2,3,4,8,9,10,11-octahydro[1,4]diazepino[6,5,4-jk]carbazole]
[1]
  5HT2C Affinity DOI/Agonist binding, inhibition @ 1 μM: 55%

## CN1CCN(C2=Nc3ccccc3Oc3ccc(Cl)cc32)CC1 [Loxapine]
[1]; [3]
  Ki: 0.033 µM

## CSc1ccc2c(c1)C(N1CCN(C)CC1)Cc1ccccc1S2 (centres unmarked) [Methiothepin]
[1]; [125I]DOI binding, h5HT2C in CHO membranes, 95% confidence interval in brackets, read-out: Ki value and 95% confidence interval (reference compounds)
  Ki: 0.0046 µM

## CC[C@@H](CO)NC(=O)[C@@H]1C=C2c3cccc4c3c(cn4C)C[C@H]2N(C)C1 [Methysergide]
[1]
  Ki: 0.0063 µM

## Cc1nc2sccn2c(=O)c1CCN1CCC(=C(c2ccc(F)cc2)c2ccc(F)cc2)CC1 [Ritanserin]
[1]; [3]
  Ki: 0.002 µM

## COc1cc(CC(C)N)c(OC)cc1I (centres unmarked) [[^125I] DOI]
[1]; read-out: dissociation constant, KD of [125I] DOI at the human serotonin 5HT2C receptor, saturation binding with increasing concentrations of [125I] DOI
  Kd: 0.0004 µM

## Clc1cccc(N2CCNCC2)c1 [mCPP, meta-chlorophenylpiperazine]
[2]
  effect on food intake: decreases food intake
